Results taken from ChEMBL document CHEMBL2396621, “Design, synthesis and biological evaluation of 2-mercapto-3-phenethylquinazoline bearing anilide fragments as potential antitumor agents: molecular docking study” (2013).

Tests used:
Assay type in all cases: functional
[1] = system: MDA-MB-231; experiment: Cytotoxicity against human MDA-MB-231 cells assessed as growth inhibition at 10 uM after 48 hrs by coulter counter analysis; settings: MDA-MB-231, 48 h, read-out: GI
[2] = system: MCF7; experiment: Cytotoxicity against human MCF7 cells assessed as growth inhibition at 10 uM after 48 hrs by coulter counter analysis; settings: MCF7, 48 h, read-out: GI
[3] = system: TK-10; experiment: Cytotoxicity against human TK10 cells assessed as growth inhibition at 10 uM after 48 hrs by coulter counter analysis; settings: TK-10, 48 h, read-out: GI
[4] = system: CAKI-1; experiment: Cytotoxicity against human Caki1 cells assessed as growth inhibition at 10 uM after 48 hrs by coulter counter analysis; settings: CAKI-1, 48 h, read-out: GI
[5] = system: ACHN; experiment: Cytotoxicity against human ACHN cells assessed as growth inhibition at 10 uM after 48 hrs by coulter counter analysis; settings: read-out: GI
[6] = Cytotoxicity against human NCI-ADR-RES cells assessed as growth inhibition at 10 uM after 48 hrs by coulter counter analysis; settings: read-out: GI
[7] = system: OVCAR-3; experiment: Cytotoxicity against human OVCAR3 cells assessed as growth inhibition at 10 uM after 48 hrs by coulter counter analysis; settings: OVCAR-3, 48 h, read-out: GI
[8] = system: SF-295; experiment: Cytotoxicity against human SF295 cells assessed as growth inhibition at 10 uM after 48 hrs by coulter counter analysis; settings: SF-295, 48 h, read-out: GI
[9] = system: SF-268; experiment: Cytotoxicity against human SF268 cells assessed as growth inhibition at 10 uM after 48 hrs by coulter counter analysis; settings: SF-268, 48 h, read-out: GI
[10] = system: SW-620; experiment: Cytotoxicity against human SW620 cells assessed as growth inhibition at 10 uM after 48 hrs by coulter counter analysis; settings: SW-620, 48 h, read-out: GI
[11] = system: HT-29; experiment: Cytotoxicity against human HT-29 cells assessed as growth inhibition at 10 uM after 48 hrs by coulter counter analysis; settings: HT-29, 48 h, read-out: GI
[12] = system: HCT-15; experiment: Cytotoxicity against human HCT15 cells assessed as growth inhibition at 10 uM after 48 hrs by coulter counter analysis; settings: HCT-15, 48 h, read-out: GI
[13] = system: HCC 2998; experiment: Cytotoxicity against human HCC2998 cells assessed as growth inhibition at 10 uM after 48 hrs by coulter counter analysis; settings: HCC 2998, 48 h, read-out: GI
[14] = system: NCI-H522; experiment: Cytotoxicity against human NCI-H522 cells assessed as growth inhibition at 10 uM after 48 hrs by coulter counter analysis; settings: NCI-H522, 48 h, read-out: GI
[15] = system: U-251; experiment: Cytotoxicity against human U251 cells assessed as growth inhibition at 10 uM after 48 hrs by coulter counter analysis; settings: U-251, 48 h, read-out: GI
[16] = system: HL-60(TB); experiment: Cytotoxicity against human HL-60(TB) cells assessed as growth inhibition at 10 uM after 48 hrs by coulter counter analysis; settings: HL-60, 48 h, read-out: GI
[17] = system: MOLT-4; experiment: Cytotoxicity against human MOLT4 cells assessed as growth inhibition at 10 uM after 48 hrs by coulter counter analysis; settings: MOLT-4, 48 h, read-out: GI

Row | SMILES | inhibition of growth at 10 µM [1] | inhibition of growth at 10 µM [2] | inhibition of growth at 10 µM [3] | inhibition of growth at 10 µM [4] | inhibition of growth at 10 µM [5] | inhibition of growth at 10 µM [6] | inhibition of growth at 10 µM [7] | inhibition of growth at 10 µM [8] | inhibition of growth at 10 µM [9] | inhibition of growth at 10 µM [10] | inhibition of growth at 10 µM [11] | inhibition of growth at 10 µM [12] | inhibition of growth at 10 µM [13] | inhibition of growth at 10 µM [14] | inhibition of growth at 10 µM [15] | inhibition of growth at 10 µM [16] | inhibition of growth at 10 µM [17]
1 | O=C(CSc1nc2ccccc2c(=O)n1CCc1ccccc1)Nc1ccccc1C(=O)O | 45% | 21% | 19% | < 10% | 34% | 34% | 29% | 18% | 33% | 21% | 11% | 12% | < 10% | 85% |  |  | 
2 | CC(=O)c1ccc(NC(=O)CSc2nc3ccccc3c(=O)n2CCc2ccccc2)cc1 | 39% | 16% | < 10% | 16% | 30% | 33% | 23% | 21% | 32% | 14% | 12% | 21% | < 10% | 51% | 10% |  | 
3 | O=C(CSc1nc2ccccc2c(=O)n1CCc1ccccc1)Oc1ccccc1 | 15% | 15% | < 10% | < 10% | 10% | 22% | < 10% | 20% | 16% | < 10% | < 10% | < 10% | < 10% | 37% |  | 11% | 23%
4 | O=C(CSc1nc2ccccc2c(=O)n1CCc1ccccc1)Nc1cc(Cl)ccc1C(=O)O | < 10% | < 10% | < 10% | 17% | < 10% | < 10% | < 10% | < 10% | < 10% | < 10% | < 10% | < 10% | < 10% | < 10% | < 10% |  | 
5 | COc1ccc(NC(=O)CSc2nc3ccccc3c(=O)n2CCc2ccccc2)cc1 | 39% | 11% | 10% | 13% | < 10% | 15% | 10% | 21% | 47% | 11% | < 10% | < 10% | < 10% | < 10% | 29% |  | 
6 | O=C(CSc1nc2ccccc2c(=O)n1CCc1ccccc1)Nc1ccc(Cl)cc1 | 37% | 30% | 19% | 42% | 22% | 21% | 32% | 32% | 40% | 11% | < 10% | 16% | < 10% | 45% | 25% |  | 
7 | O=C(CSc1nc2ccccc2c(=O)n1CCc1ccccc1)NCc1ccccc1 | 37% | 21% | 20% | 32% | 38% | 19% | 10% | 27% | 28% | < 10% | < 10% | 20% | < 10% | 28% | 24% |  | 
8 | O=C(CSc1nc2ccccc2c(=O)n1CCc1ccccc1)Nc1ccccc1 | 35% | 19% | < 10% | < 10% | < 10% | < 10% | < 10% | < 10% | < 10% | < 10% | < 10% | < 10% | < 10% | 10% | < 10% | 17% | < 10%
9 | O=C(CSc1nc2ccccc2c(=O)n1CCc1ccccc1)Nc1ccc(F)cc1 | 22% | 18% | < 10% | 22% | 16% | < 10% | < 10% | 13% | < 10% | < 10% | 10% | 10% | < 10% | 31% | 17% | 25% | 26%
10 | CCOc1ccc(NC(=O)CSc2nc3ccccc3c(=O)n2CCc2ccccc2)cc1 | 25% | 12% | < 10% | 12% | 12% | < 10% | < 10% | < 10% | 25% | < 10% | 10% | < 10% | < 10% | 11% | 27% |  | 10%
11 | O=C(CSc1nc2ccccc2c(=O)n1CCc1ccccc1)Oc1ccc(Cl)cc1 | 33% | 34% | < 10% | 27% | < 10% | 10% | < 10% | < 10% | < 10% | < 10% | < 10% | 25% | < 10% | 37% | < 10% |  | 
12 | CCOC(=O)c1ccc(NC(=O)CSc2nc3ccccc3c(=O)n2CCc2ccccc2)cc1 | 48% | 12% | < 10% | 19% | 21% | 19% | 13% | 25% | 33% | 11% | 12% | < 10% | < 10% | 26% | 28% |  | 
13 | COc1cc(OC(=O)CSc2nc3ccccc3c(=O)n2CCc2ccccc2)cc(OC)c1OC | 20% | 34% | < 10% | 28% | 10% | 11% | < 10% | 13% | < 10% | < 10% | < 10% | 48% | < 10% | < 10% | 26% |  | 
